Results reported in patent US8263606B2 (Xenon Pharmaceuticals Inc., priority 2008, dated 2012).

Experiments:
CYP3A4 = CYP3A4 (Homo sapiens, UniProt P08684); experiment: Cytochrome P450 (CYP450) Inhibition Assay, CYP3A4 (Vivid fluorescence, BOMCC substrate); settings: human, P450 Baculosomes (recombinant CYP3A4), probe BOMCC (Vivid substrate)
sodium channel = experiment: Guanidine influx assay (14C-guanidine radiotracer flux, in vitro); assay type: cell-based, human or rat; settings: guanidine influx assay using a known cell line that expresses a sodium channel
Method in brief: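 Cells (human/rat Nav, endogenous or recombinant), ~100,000/well, 20-24 h 37 °C/5% CO2. Wash LNHBSS (150 mM choline Cl, HEPES, glucose). Add cpd + aconitine/14C-guanidine mix, RT. Wash, dry, scintillation count. IC50: 4-PL fit; selectivity as IC50 ratio vs reference channel, e.g. Nav1.5.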

Sequence of CYP3A4 (P08684 whole entry): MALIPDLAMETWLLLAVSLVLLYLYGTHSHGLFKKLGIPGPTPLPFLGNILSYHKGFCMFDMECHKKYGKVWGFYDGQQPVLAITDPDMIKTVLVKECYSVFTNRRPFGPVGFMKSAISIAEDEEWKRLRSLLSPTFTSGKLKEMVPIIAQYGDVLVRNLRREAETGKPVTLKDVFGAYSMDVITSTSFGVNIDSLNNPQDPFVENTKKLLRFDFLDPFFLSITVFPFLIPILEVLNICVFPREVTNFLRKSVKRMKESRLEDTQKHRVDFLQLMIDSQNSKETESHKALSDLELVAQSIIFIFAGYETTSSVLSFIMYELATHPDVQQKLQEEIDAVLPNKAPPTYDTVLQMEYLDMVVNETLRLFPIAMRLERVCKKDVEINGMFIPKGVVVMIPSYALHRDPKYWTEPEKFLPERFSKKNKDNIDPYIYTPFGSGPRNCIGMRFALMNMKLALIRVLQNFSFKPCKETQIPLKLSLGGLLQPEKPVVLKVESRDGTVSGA

O=C1N(Cc2ccnnc2)c2ccccc2C12COc1cc3c(cc12)CCO3 (stereo not drawn) [Example 10, 1-(pyridazin-4-ylmethyl)-5,6-dihydrospiro[benzo[1,2-b:5,4-b′]difuran-3,3′-indol]-2′(1′H)-one]
melting point: 187 to 189 °C | inhibition at 10 µM (CYP3A4): > 50% | IC50 (sodium channel): 100 to 1000 nM

O=C1Nc2ccccc2C12COc1c(Cl)cc3c(c12)OCCO3 (stereo not drawn) [Example 3.42, 6-chloro-2,3-dihydrospiro[furo[3,2-f][1,4]benzodioxine-9,3′-indol]-2′(1′H)-one]
melting point: 255 to 257 °C | inhibition at 10 µM (CYP3A4): < 50% | IC50 (sodium channel; activity level class): 1000 to 10000 nM

O=C1N(CCCOCc2ccccc2)c2ccccc2C12COc1cc3c(cc12)CCO3 (stereo not drawn) [Example 9.17, 1′-[3-(benzyloxy)propyl]-5,6-dihydrospiro[benzo[1,2-b:5,4-b′]difuran-3,3′-indol]-2′(1′H)-one]
melting point: 112 to 113 °C | inhibition at 10 µM (CYP3A4): > 50% | IC50 (sodium channel; activity level class): 100 to 1000 nM

O=C1N(Cc2ccc(C(F)(F)F)o2)c2cc3c(cc2C12COc1cc4c(cc12)CCO4)OCCO3 (stereo not drawn) [Example 2.25, 6-((5-(trifluoromethyl)furan-2-yl)methyl)-2,3,5′,6′-tetrahydro-2′H-spiro[f-[1,4]dioxino[2,3-f]indole-8,3′-benzofuro[6,5-b]furan]-7(6H)-one]
melting point: 189 to 191 °C | inhibition at 10 µM (CYP3A4): > 50% | IC50 (sodium channel; activity level class): 100 to 1000 nM

O=C1N(C[C@@H]2COCCO2)c2ccccc2C12COc1cc3c(cc12)OCC3 (stereo partly drawn) [Example 8.10, 1′-[(2R)-1,4-dioxan-2-ylmethyl]-6,7-dihydrospiro[benzo[1,2-b:4,5-b′]difuran-3,3′-indol]-2′(1′H)-one]
melting point: 162 to 164 °C | inhibition at 10 µM (CYP3A4): < 50% | IC50 (sodium channel; activity level class): 100 to 1000 nM

O=C1N(Cc2noc(C(F)F)n2)c2cccc(Cl)c2C12COc1cc3c(cc12)OCO3 (stereo not drawn) [Example 11.21]
melting point: 179 to 182 °C | inhibition at 10 µM (CYP3A4): > 50% | IC50 (sodium channel): 1 to 100 nM

N#Cc1cc2c(cc1O)OCC21C(=O)N(Cc2ccccc2C(F)(F)F)c2ccccc21 (stereo not drawn) [Example 45.1, 6-hydroxy-2′-oxo-1′-[2-(trifluoromethyl)benzyl]-1′,2′-dihydrospiro[1-benzofuran-3,3′-indole]-5-carbonitrile]
melting point: 122 to 124 °C | inhibition at 10 µM (CYP3A4): < 50% | IC50 (sodium channel): 1000 to 10000 nM

CN(C)c1ccc(-c2cccc3c2C2(COc4cc5c(cc42)OCO5)C(=O)N3)cn1 (stereo not drawn) [Example 16.14, 4′-[6-(dimethylamino)pyridin-3-yl]spiro[furo[2,3-f][1,3]benzodioxole-7,3′-indol]-2′(1′H)-one]
melting point: > 245 °C | inhibition at 10 µM (CYP3A4): > 50% | IC50 (sodium channel): 1000 to 10000 nM

Cc1c(F)cccc1NC(=O)c1ccc(CN2C(=O)C3(COc4cc5c(cc43)CCO5)c3ccccc32)cc1 (stereo not drawn) [Example 12.44, N-(3-fluoro-2-methylphenyl)-4-[(2′-oxo-5,6-dihydrospiro[benzo[1,2-b:5,4-b′]difuran-3,3′-indol]-1′(2′H)-yl)methyl]benzamide]
melting point: 143 to 144 °C | inhibition at 10 µM (CYP3A4): < 50% | IC50 (sodium channel): 1000 to 10000 nM

O=C1N(Cc2ncccc2C(F)(F)F)c2ccccc2C12COc1c2ccc2c1OCCO2 (stereo not drawn) [Example 5.37, 1′-{[3-(trifluoromethyl)pyridin-2-yl]methyl}-2,3-dihyrospiro[furo[2,3-f][1,4]benzodioxine-7,3′-indol]-2′(1′H)-one]
melting point: 206 to 207 °C | inhibition at 10 µM (CYP3A4): < 50% | IC50 (sodium channel; activity level class): 100 to 1000 nM

O=C1N(C[C@H]2CCCO2)c2ccc(F)cc2C12COc1cc3c(cc12)CCO3 (stereo partly drawn) [Example 9.18, 5′-fluoro-1′-[(2R)-tetrahydrofuran-2-ylmethyl]-5,6-dihydrospiro[benzo[1,2-b:5,4-b′]difuran-3,3′-indol]-2′(1′H)-one]
melting point: 167 to 169 °C | inhibition at 10 µM (CYP3A4): > 50% | IC50 (sodium channel; activity level class): 100 to 1000 nM

CC(O)CCN1C(=O)C2(COc3cc4c(cc32)CCO4)c2ccccc21 (stereo not drawn) [Example 14.4, 1′-(3-hydroxybutyl)-5,6-dihydrospiro[benzo[1,2-b:5,4-b′]difuran-3,3′-indol]-2′(1′H)-one]
melting point: 64 to 66 °C | inhibition at 10 µM (CYP3A4): < 50% | IC50 (sodium channel): 100 to 1000 nM

Nc1nc(CN2C(=O)C3(COc4cc5c(cc43)OCO5)c3ccccc32)cs1 (stereo not drawn) [Example 4.85, 1′-[(2-amino-1,3-thiazol-4-yl)methyl]spiro[furo[2,3-f][1,3]benzodioxole-7,3′-indol]-2′(1′H)-one]
melting point: 230 to 235 °C | inhibition at 10 µM (CYP3A4): > 50% | IC50 (sodium channel; activity level class): 100 to 1000 nM

N#CCN1C(=O)C2(COc3cc4c(cc32)OCO4)c2c(Cl)cccc21 (stereo not drawn) [Example 4.84]
melting point: 122 to 123 °C | inhibition at 10 µM (CYP3A4): < 50% | IC50 (sodium channel; activity level class): 100 to 1000 nM

O=C1N(Cc2ccccn2)c2ccccc2C12COc1cc3[nH]ncc3cc12 (stereo not drawn) [Example 46.1, 1′-(pyridin-2-ylmethyl)-1H-spiro[furo[3,2-f]indazole-5,3′-indol]-2′(1′H)-one]
melting point: 117 to 119 °C | inhibition at 10 µM (CYP3A4): < 50% | IC50 (sodium channel): 100 to 1000 nM

O=C(CN1C(=O)C2(COc3cc4c(cc32)OCCO4)c2ccccc21)Nc1ccccc1F (stereo not drawn) [Example 13.7, N-(2-fluorophenyl)-2-(2′-oxo-2,3-dihydrospiro[furo[2,3-g][1,4]benzodioxine-8,3′-indol]-1′(2′H)-yl)acetamide]
melting point: 117 to 119 °C | inhibition at 10 µM (CYP3A4): < 50% | IC50 (sodium channel): 1 to 100 nM

O=C1N(C(c2ccccc2)c2ccccc2)c2ccccc2C12COc1ccc(F)cc12 (stereo not drawn) [Example 2.9, 1′-(diphenylmethyl)-5-fluorospiro[1-benzofuran-3,3′-indol]-2′(1′H)-one]
melting point: 182 to 184 °C | inhibition at 10 µM (CYP3A4): < 50% | IC50 (sodium channel; activity level class): 1000 to 10000 nM

CN(C)C(=O)c1cccc(CN2C(=O)C3(COc4cc5c(cc43)OCCO5)c3ccccc32)c1 (stereo not drawn) [Example 12.62, N,N-dimethyl-3-[(2′-oxo-2,3-dihydrospiro[furo[2,3-g][1,4]benzodioxine-8,3′-indol]-1′(2′H)-yl)methyl]benzamide]
melting point: 90 to 96 °C | inhibition at 10 µM (CYP3A4): > 50% | IC50 (sodium channel): 100 to 1000 nM

N#Cc1ccccc1-c1ccc(CN2C(=O)C3(COc4cc5c(cc43)CCO5)c3ccccc32)cc1 (stereo not drawn) [Example 4.24, 4′-[(2′-oxo-5,6-dihydrospiro[benzo[1,2-b:5,4-b′]difuran-3,3′-indol]-1′(2′H)-yl)methyl]biphenyl-2-carbonitrile]
melting point: 192 to 194 °C | inhibition at 10 µM (CYP3A4): < 50% | IC50 (sodium channel; activity level class): 100 to 1000 nM

O=C1N(Cc2cc(-c3ccc(Cl)cc3)oc2C(F)(F)F)c2ccccc2C12COc1cc3c(cc12)OCO3 (stereo not drawn) [Example 1.15, 1′-{[5-(4-chlorophenyl)-2-(trifluoromethyl)furan-3-yl]methyl}spiro[furo[2,3-f][1,3]benzodioxole-7,3′-indol]-2′(1′H)-one]
melting point: 114 to 116 °C | inhibition at 10 µM (CYP3A4): < 50% | IC50 (sodium channel; activity level class): 1000 to 10000 nM

CC1(C)O[C@H]2[C@@H](O1)[C@@H](CN1C(=O)C3(COc4cc5c(cc43)OCCO5)c3ccccc31)O[C@@H]1OC(C)(C)O[C@@H]12 (stereo partly drawn) [Example 19, 1′-{[(3aR,5R,5aS,8aS,8bR)-2,2,7,7-tetramethyltetrahydro-3aH-bis[1,3]dioxolo[4,5-b:4′,5′-d]pyran-5-yl]methyl}-2,3-dihydrospiro[furo[2,3-g][1,4]benzodioxine-8,3′-indol]-2′(1′H)-one]
melting point: 112 to 118 °C | inhibition at 10 µM (CYP3A4): < 50% | IC50 (sodium channel): 1000 to 10000 nM

CC(C)c1nc(CN2C(=O)C3(COc4cc5c(cc43)OCO5)c3c(-c4ccc(N(C)C)nc4)cccc32)cs1 (stereo not drawn) [Example 4.92, 4′-[6-(dimethylamino)pyridin-3-yl]-1′-{[2-(1-methylethyl)-1,3-thiazol-4-yl]methyl}spiro[furo[2,3-f][1,3]benzodioxole-7,3′-indol]-2′(1′H)-one]
melting point: 164 to 165 °C | inhibition at 10 µM (CYP3A4): > 50% | IC50 (sodium channel; activity level class): 100 to 1000 nM

O=C1N(Cc2ccc3nsnc3c2)c2ccccc2C12COc1cc3c(cc12)OCCO3 (stereo not drawn) [Example 4.118, 1′-(2,1,3-benzothiadiazol-5-ylmethyl)-2,3-dihydrospiro[furo[2,3-g][1,4]benzodioxine-8,3′-indol]-2′(1′H)-one]
melting point: 189 to 191 °C | inhibition at 10 µM (CYP3A4): > 50% | IC50 (sodium channel; activity level class): 1 to 100 nM

O=C1COc2cc3c(cc21)C1(CO3)C(=O)N(C[C@H]2CCCO2)c2ccccc21 (stereo partly drawn) [Example 11.60, 1′-[(2R)-tetrahydrofuran-2-ylmethyl]spiro[benzo[1,2-b:5,4-b′]difuran-3,3′-indole]-2′,5(1′H,6H)-dione]
melting point: 142 to 144 °C | inhibition at 10 µM (CYP3A4): < 50% | IC50 (sodium channel): 100 to 1000 nM

O=C1N(Cc2cncc(F)c2)c2ccccc2[C@]12COc1cc3c(cc12)OCCO3 [Example 8.19, (8S)-1′-[(5-fluoropyridin-3-yl)methyl]-2,3-dihydrospiro[furo[2,3-g][1,4]benzodioxine-8,3′-indol]-2′(1′H)-one]
melting point: 197 to 200 °C | inhibition at 10 µM (CYP3A4): < 50% | IC50 (sodium channel; activity level class): 1 to 100 nM

COc1cc(CN2C(=O)C3(COc4cc5c(cc43)OCCO5)c3ccccc32)cc(OC)c1 (stereo not drawn) [Example 4.47, 1′-(3,5-dimethoxybenzyl)-2,3-dihydrospiro[furo[2,3-g][1,4]benzodioxine-8,3′-indol]-2′(1′H)-one]
melting point: 192 to 195 °C | inhibition at 10 µM (CYP3A4): > 50% | IC50 (sodium channel; activity level class): 1 to 100 nM

O=C1N(Cc2ccc(Cl)s2)c2cccc(Cl)c2C12COc1cc3c(cc12)OCO3 (stereo not drawn) [Example 4.89, 4′-chloro-1′-[(5-chloro-2-thienyl)methyl]spiro[furo[2,3-f][1,3]benzodioxole-7,3′-indol]-2′(1′H)-one]
melting point: 167 to 168 °C | inhibition at 10 µM (CYP3A4): > 50% | IC50 (sodium channel; activity level class): 1 to 100 nM

Cc1noc2cc3c(cc12)C1(CO3)C(=O)N(CCC(C)C)c2ccccc21 (stereo not drawn) [Example 9.55, 3-methyl-1′-(3-methylbutyl)spiro[furo[3,2-f][1,2]benzisoxazole-5,3′-indol]-2′(1′H)-one]
melting point: 135 to 138 °C | inhibition at 10 µM (CYP3A4): > 50% | IC50 (sodium channel): 1 to 100 nM
